Measurements published in patent US20250361231A1, “FUSED RING COMPOUNDS WITH SULFUR-CONTAINING SUBSTITUENTS, PREPARATION METHODS, INSECTICIDE COMPOSITIONS, AND APPLICATION” (priority 2022, published 2025).

Assays:
Type in all cases: in vivo
[1] = test system: Myzus persicae; assay: Activity against Myzus persicae (green peach aphid), pea seedling roots in test solution; settings: 144 h, test rate 100 ppm, 6 days after placing seedlings into test solutions
Method: (§1) This test case is used to illustrate the insecticidal activity inhibition (%) of compounds with the structure shown in formula (I) (dosage of 100 ppm).
(§2) Roots of pea seedlings infested with an aphid population of mixed ages were placed directly into agueous test solutions prepared from […] stock solutions. The samples were assessed for mortality 6 days after placing seedlings into test solutions.

[2] = test system: Plutella xylostella; assay: Activity against Plutella xylostella, artificial diet in 24-well plates, L2 larvae; settings: for percent effect (mortality or growth inhibition) at 100 ppm: Plutella xylostella, 120 h, application rate 100 ppm, 5 days after infestation, read-out: effect in at least one of the two categories (mortality or growth inhibition); for effect: application rate 4 ppm
Method: (§3) 24-well microtiter plates with artificial diet were treated with agueous test solutions prepared from 10,000 ppm DMSO stock solutions by pipetting. After drying, the plates were infested with L2 larvae (10 to 15 per well). The samples were assessed for mortality and growth inhibition in comparison to untreated samples 5 days after infestation.

[3] = test system: Leucania separate; assay: Activity against Leucania separate, sprayed maize sprouts, L2 larvae; settings: 96 h; application rate 100 ppm; 4 days after infestation; read-out: effect in at least one of the two categories (mortality or growth inhibition)
Method: as §1
as §3, with “Maize sprouts placed onto an agar layer in 24-well” for “24-well”, “plates” for “plates with artificial diet”, “spraying.” for “pipetting.”, “(6” for “(10”, “10” for “15”, “4” for “5”

[4] = test system: Nilaparvata lugens; assay: Activity against Nilaparvata lugens, sprayed leaf discs, adults; settings: for mortality at 100 ppm: Nilaparvata lugens, foliar, 144 h, test rate 100 ppm, 6 days after incubation; for effect: application rate 45 ppm
Method: Cotton leaf discs were placed on agar in 24-well microtiter plates and sprayed with agueous test solutions prepared from 10,000 ppm DMSO stock solutions. After drying the leaf discs were infested with adult Nilaparvata lugens. The samples were checked for mortality 6 days after incubation.

[5] = test system: Aphis craccivora Koch; assay: Activity against Aphis craccivora Koch, pea seedling roots in test solution; settings: for mortality at 100 ppm: Aphis craccivora, 144 h, test rate 100 ppm, 6 days after placing seedlings into test solutions; for effect: application rate 4 ppm
Method: as §2

[6] = test system: Laphygma exigua; assay: Activity against Laphygma exigua, artificial diet in 24-well plates, L2 larvae; settings: application rate 4 ppm
Method: as §3

[7] = test system: Chilo suppressalis; assay: Activity against Chilo suppressalis, soaked rice seedlings, L2 larvae; settings: application rate 5 ppm, after 96 hours, read-out: effect (mortality rates)
Method: Take 5-6 rice seedlings, each 3-4 cm in height, soak them thoroughly in the prepared solution, After drying, the plates were infested with L2 larvae (10 per well). Keep them in an observation room for rearing and observation. Use 0.1% warm water as a blank control. Incubate them in an observation room at 25 to 27° C. After 96 hours, assess the samples based on mortality rates

**Q.** Which results are given for `CCS(=O)(=O)c1cc2nc(C3CC3)n(C)c2nc1-c1nc2cc(C(F)(F)F)cnc2n1C` [Compound I-1]?
**A.** mortality at 100 ppm [1]: ≥ 90%; percent effect (mortality or growth inhibition) at 100 ppm [2]: ≥ 90%; percent effect (mortality or growth inhibition) at 100 ppm [3]: ≥ 90%; mortality at 100 ppm [4]: ≥ 90%; mortality at 100 ppm [5]: ≥ 90%; effect [5]: 100%

**Q.** For `CCS(=O)(=O)c1cc2nc(C)n(C)c2nc1-c1nc2cc(C(F)(F)F)cnc2n1C` [Compound I-2], which mortality at 100 ppm [1] is on record?
**A.** ≥ 90%

**Q.** And the percent effect (mortality or growth inhibition) at 100 ppm [2]?
**A.** ≥ 90%

**Q.** What about the percent effect (mortality or growth inhibition) at 100 ppm [3] of the same compound?
**A.** ≥ 90%

**Q.** What about the mortality at 100 ppm [4] of the same compound?
**A.** ≥ 90%

**Q.** And the mortality at 100 ppm [5]?
**A.** ≥ 90%

**Q.** For `CCS(=O)(=O)c1cc2nc(C3CC3)sc2nc1-c1nc2cc(C(F)(F)F)cnc2n1C` [Compound I-73], which mortality at 100 ppm [1] is on record?
**A.** ≥ 90%

**Q.** And the percent effect (mortality or growth inhibition) at 100 ppm [2]?
**A.** ≥ 90%

**Q.** What about the effect [2] of the same compound?
**A.** 100%

**Q.** What about the percent effect (mortality or growth inhibition) at 100 ppm [3] of the same compound?
**A.** ≥ 90%

**Q.** And the mortality at 100 ppm [4]?
**A.** ≥ 90%

**Q.** What about the effect [4] of the same compound?
**A.** 95%

**Q.** And the effect [6]?
**A.** 100%

**Q.** What about the mortality at 100 ppm [5] of the same compound?
**A.** ≥ 90%

**Q.** And the effect [5]?
**A.** 100%

**Q.** What about the mortality at 5 ppm [7] of the same compound?
**A.** 100%

**Q.** `CCS(=O)(=O)c1cc2nc(C(F)(F)F)sc2nc1-c1nc2cc(C(F)(F)F)cnc2n1C` [Compound I-100] was tested. Which effect [4] did it give?
**A.** 95%

**Q.** And the effect [5]?
**A.** 100%

**Q.** Which results are given for `CCS(=O)(=O)c1cc2sc(C3CC3)nc2nc1-c1nc2cc(C(F)(F)F)cnc2n1C` [Compound I-109]?
**A.** mortality at 100 ppm [1]: ≥ 90%; percent effect (mortality or growth inhibition) at 100 ppm [2]: ≥ 90%; effect [2]: 100%; percent effect (mortality or growth inhibition) at 100 ppm [3]: ≥ 90%; mortality at 100 ppm [4]: ≥ 90%; effect [4]: 95%; effect [6]: 100%; mortality at 100 ppm [5]: ≥ 90%; effect [5]: 100%; mortality at 5 ppm [7]: 100%
